{
  "source": "patent US20240246905A1",
  "about": "(University of Leicester, priority 2021, published 2024)",
  "key": {"[1]": {"tested_on": "MRSA 252, MSSA 476, S. aureus 15981, P. aeruginosa PA01 and E. coli DH5α", "test": "Disc diffusion primary screening, five strains (statements in words)", "assay_type": "cell-based", "conditions": "500 μg/mL", "procedure": "As such, the minimum inhibition concentration (MICs) of biologically active compounds were further assessed using the broth dilution method against the S. aureus strains; MRSA 252 and MSSA 476 (Table 1). The results of both assays enabled key structural elements and functional groups required for the compounds to retain their antibiotic activity to be identified.\n(§1) The antibiotic activity was determined using a Kirby-Bauer method according to Clinical Standard Laboratory Institute (CSLI) Guidelines (2017). Briefly, 180 μL of a 1 in 200 dilution (in LB or TSB) of overnight cultures of selected Gram negative and Gram positive bacteria were applied to an agar plate containing the solid growth medium, Mueller-Hinton agar (MHA). Sterile discs, inoculated with 50 μL of antibiotic, were first added to the agar plate before the plates were incubated for 24 hours at 37° C. Following incubation, the zone of inhibition (if it existed) was recorded."}, "[2]": {"tested_on": "C. neoformans H99; ATCC 208821", "test": "Anti-fungal MIC (CO-ADD)", "assay_type": "cell-based", "conditions": "Cryptococcus neoformans, ATCC208821, read-out: MIC", "procedure": "(§2) Fungal strains were cultured for 3 days on Yeast Extract-Peptone Dextrose (YPD) agar at 30° C. A yeast suspension of 1×10^6 to 5×10^6 CFU/mL (as determined by OD530) was prepared from five colonies. […] All plates were covered and incubated at 35° C. for 36 hours without shaking. […] The absorbance was measured using a Biotek Multiflo Synergy HTX plate reader. In both cases, the percentage of growth inhibition was calculated for each well, using the negative control (media only) and positive control (fungi without inhibitors) on the same plate. […] Due to a higher variance in growth and inhibition, a lower threshold was applied to the data for C. neoformans. In addition, the maximal percentage of growth inhibition is reported as DMax, indicating any compounds with marginal activity."}, "C. tropicalis ATCC 750": {"tested_on": "C. tropicalis ATCC 750", "test": "Anti-fungal MIC (CO-ADD)", "assay_type": "cell-based", "conditions": "Candida tropicalis, ATCC750, read-out: MIC", "procedure": "as §2"}, "[3]": {"tested_on": "C. deuterogattii ATCC 32609", "test": "Anti-fungal MIC (CO-ADD)", "assay_type": "cell-based", "conditions": "read-out: MIC", "procedure": "as §2"}, "C. glabrata ATCC 90030": {"tested_on": "C. glabrata ATCC 90030", "test": "Anti-fungal MIC (CO-ADD)", "assay_type": "cell-based", "conditions": "Nakaseomyces glabratus, ATCC90030, read-out: MIC", "procedure": "as §2"}, "C. albicans ATCC 90028": {"tested_on": "C. albicans ATCC 90028", "test": "Anti-fungal MIC (CO-ADD)", "assay_type": "cell-based", "conditions": "Candida albicans, ATCC90028, read-out: MIC", "procedure": "as §2"}, "C. tropicalis ATCC 450": {"tested_on": "C. tropicalis ATCC 450", "test": "Anti-fungal MIC (CO-ADD)", "assay_type": "cell-based", "conditions": "Candida tropicalis, ATCC450, read-out: MIC", "procedure": "as §2"}, "MSSA 476 [4]": {"tested_on": "MSSA 476", "test": "Disc diffusion (Kirby-Bauer), zone of inhibition", "assay_type": "cell-based, Staphylococcus aureus", "conditions": "500 μg/mL, '/' = no zone; for zone of inhibition at 500 µg/mL: Staphylococcus aureus", "procedure": "(§3) E. coli DH5α, P. aeruginosa PA01 and the 53 S. aureus strains were recovered from frozen (−80° C.) glycerol (15% v/v) stocks on Lysogeny agar (LA)—Gram negative and trypticase soy agar (TSA)—plates at 37° C. for 24 hours. Single colonies were placed in either 3 mL Lysogeny broth (LB)—Gram negative or trypticase soy broth (TSB)—Gram positive and incubated at 37° C., 250 rpm for 18 hours.\nas §1"}, "MRSA 252 [5]": {"tested_on": "MRSA 252", "test": "Disc diffusion (Kirby-Bauer), zone of inhibition", "assay_type": "cell-based, Staphylococcus aureus", "conditions": "500 μg/mL, '/' = no zone; for zone of inhibition at 500 µg/mL: Staphylococcus aureus", "procedure": "as §3, §1"}, "[6]": {"tested_on": "Staphylococcus aureus 15981", "test": "Disc diffusion (Kirby-Bauer), zone of inhibition", "assay_type": "cell-based", "conditions": "500 μg/mL, '/' = no zone", "procedure": "as §3, §1"}, "MSSA 476 [7]": {"tested_on": "MSSA 476", "test": "MIC, broth micro-dilution", "assay_type": "cell-based, Staphylococcus aureus", "procedure": "as §3\n(§4) Antibiotic MIC's were determined by a broth micro-dilution method according to Clinical Standard Laboratory Institute (CSLI) Guidelines (2017). Briefly, 96-well microplates, each containing 195 μL of the 1:2 dilution antibiotic in TSB, were inoculated with 5 μL of overnight cultured bacteria, diluted to give a starting bacterial concentration of 5×10^5 CFU/mL. The optical density of each well inoculated was recorded every 12 minutes over an 18 hour period at 37° C. The data from this was plotted in OriginPro8 (OriginLab) and sigmoidal curves fitted using the dose response function. Fitted values for each curve were used to calculate the MIC."}, "MRSA 252 [8]": {"tested_on": "MRSA 252", "test": "MIC, broth micro-dilution", "assay_type": "cell-based, Staphylococcus aureus", "procedure": "as §3, §4"}, "[9]": {"tested_on": "Pseudomonas aeruginosa PA01", "test": "Disc diffusion (Kirby-Bauer), zone of inhibition", "assay_type": "cell-based", "conditions": "500 μg/mL, '/' = no zone", "procedure": "as §3, §1"}, "Escherichia coli DH5α": {"tested_on": "Escherichia coli DH5α", "test": "Disc diffusion (Kirby-Bauer), zone of inhibition", "assay_type": "cell-based", "procedure": "as §3, §1"}, "Galleria mellonella": {"tested_on": "Galleria mellonella", "test": "Systemic toxicity, Galleria mellonella survival", "conditions": "n = 10, injection of 500 μg/mL", "procedure": "Galleria mellonella wax worms purchased from www.livefoods.co.uk were inoculated with 10 μL of a series of dilutions of the antibiotics synthesised in-house. The antibiotic concentrations chosen for this study were the following: 1000 μg/mL, 500 μg/mL, 250 μg/mL, 125 μg/mL and 31.25 μg/mL. Each dilution was injected into 10 individual wax worms through their last pro-leg. The injected wax worms were stored at 25° C. for 5 days. The cytotoxicity was determined as the percentage survival rate of Galleria mellonella Wax worms after 5 days inoculation."}, "[10]": {"conditions": "Staphylococcus aureus 15981, read-out: Zone of inhibition"}, "[11]": {"conditions": "Staphylococcus aureus, MSSA, read-out: MIC"}, "[12]": {"conditions": "Staphylococcus aureus, read-out: MIC"}},
  "note": "Where two headings read alike, the source gives them in different places.",
  "data": [
    {"smiles": "[C-]#[N+]CCc1ccc(O)cc1", "note": "[Compound 4, 4-(2-Isocyanoethyl)phenol]", "values": [
      {"measurement": "antibiotic activity in disc diffusion assays (in words)", "setting": "[1]", "result": "complete loss of activity against all five strains"}
    ]},
    {"smiles": "[C-]#[N+]C=Cc1ccc(O)cc1Br", "note": "[Compound 15, 3-Bromo-4-(2-isocyanovinyl)phenol]", "values": [
      {"measurement": "MIC", "setting": "[2]", "result": 8, "unit": "µg/mL"},
      {"measurement": "MIC", "setting": "C. tropicalis ATCC 750", "result": 16, "unit": "µg/mL"},
      {"measurement": "MIC", "setting": "[3]", "result": 4, "unit": "µg/mL"},
      {"measurement": "MIC", "setting": "C. glabrata ATCC 90030", "result": 32, "unit": "µg/mL"},
      {"measurement": "MIC", "setting": "C. albicans ATCC 90028", "result": 8, "unit": "µg/mL"},
      {"measurement": "MIC", "setting": "C. tropicalis ATCC 450", "result": 4, "unit": "µg/mL"},
      {"measurement": "zone of inhibition at 500 µg/mL", "setting": "MSSA 476 [4]; read-out: Zone of inhibition", "result": 22, "unit": "mm"},
      {"measurement": "zone of inhibition at 500 µg/mL", "setting": "MRSA 252 [5]; read-out: Zone of inhibition", "result": 20, "unit": "mm"},
      {"measurement": "zone of inhibition at 500 µg/mL", "setting": "[6]; [10]", "result": 24, "unit": "mm"},
      {"measurement": "MIC", "setting": "MSSA 476 [7]; [11]", "result": 200, "unit": "µg/mL"},
      {"measurement": "MIC", "setting": "MRSA 252 [8]; [12]", "result": 185, "unit": "µg/mL"}
    ]},
    {"smiles": "[C-]#[N+]C=Cc1ccc(NC(=O)OC(C)(C)C)cc1", "note": "[Compound 23, Tert-butyl(4-(isocyanovinyl)phenyl)carbamate]", "values": [
      {"measurement": "zone of inhibition at 500 µg/mL", "setting": "MSSA 476 [4]; read-out: Zone of inhibition", "result": 20, "unit": "mm"},
      {"measurement": "zone of inhibition at 500 µg/mL", "setting": "MRSA 252 [5]; read-out: Zone of inhibition", "result": 18, "unit": "mm"},
      {"measurement": "zone of inhibition at 500 µg/mL", "setting": "[9]", "result": 14, "unit": "mm"},
      {"measurement": "zone of inhibition at 500 µg/mL", "setting": "[6]; [10]", "result": 14, "unit": "mm"},
      {"measurement": "zone of inhibition at 500 µg/mL", "setting": "Escherichia coli DH5α; Escherichia coli DH5α, 500 μg/mL, '/' = no zone, read-out: Zone of inhibition", "result": 14, "unit": "mm"},
      {"measurement": "MIC", "setting": "MSSA 476 [7]; [11]", "result": 164, "unit": "µg/mL"},
      {"measurement": "MIC", "setting": "MRSA 252 [8]; [12]", "result": 35, "unit": "µg/mL"}
    ]},
    {"smiles": "[C-]#[N+]C=Cc1c[nH]c2ccccc12", "note": "[Compound 25, 3-(2-Isocyanovinyl)-1H-indole]", "values": [
      {"measurement": "zone of inhibition at 500 µg/mL", "setting": "MSSA 476 [4]; MSSA", "result": 16, "unit": "mm"},
      {"measurement": "zone of inhibition at 500 µg/mL", "setting": "MRSA 252 [5]; MRSA", "result": 18, "unit": "mm"},
      {"measurement": "% survival after 5 days", "setting": "Galleria mellonella", "result": 90, "unit": "%"},
      {"measurement": "zone of inhibition at 500 µg/mL", "setting": "[6]; Staphylococcus aureus, 15981, Staphylococcus aureus 15981", "result": 16, "unit": "mm"},
      {"measurement": "MIC", "setting": "MSSA 476 [7]; Staphylococcus aureus, MSSA", "result": 166, "unit": "µg/mL"},
      {"measurement": "MIC", "setting": "MRSA 252 [8]", "result": 61, "unit": "µg/mL"}
    ]},
    {"smiles": "[C-]#[N+]C=Cc1c[nH]c2ccccc12", "note": "[Compound 26, 3-(2-Isocyanovinyl)-1H-indole]", "values": [
      {"measurement": "Zone of inhibition", "setting": "MSSA 476 [4]", "result": 20, "unit": "mm"},
      {"measurement": "Zone of inhibition", "setting": "MRSA 252 [5]", "result": 20, "unit": "mm"},
      {"measurement": "% survival after 5 days", "setting": "Galleria mellonella", "result": 100, "unit": "%"},
      {"measurement": "Zone of inhibition", "setting": "[6]; Staphylococcus aureus 15981", "result": 22, "unit": "mm"},
      {"measurement": "zone of inhibition at 500 µg/mL", "setting": "Escherichia coli DH5α; Escherichia coli", "result": 20, "unit": "mm"},
      {"measurement": "MIC", "setting": "MSSA 476 [7]", "result": 222, "unit": "µg/mL"},
      {"measurement": "MIC", "setting": "MRSA 252 [8]", "result": 20, "unit": "µg/mL"}
    ]},
    {"smiles": "[C-]#[N+]/C=C/c1cc(/C=C/c2ccccc2)ccc1O", "note": "[Compound 37]", "values": [
      {"measurement": "antibiotic activity in disc diffusion assays (in words)", "setting": "[1]", "result": "retained antibiotic activity"},
      {"measurement": "zone of inhibition at 500 µg/mL", "setting": "MSSA 476 [4]; read-out: Zone of inhibition", "result": 24, "unit": "mm"},
      {"measurement": "zone of inhibition at 500 µg/mL", "setting": "MRSA 252 [5]; read-out: Zone of inhibition", "result": 22, "unit": "mm"},
      {"measurement": "zone of inhibition at 500 µg/mL", "setting": "[6]; [10]", "result": 22, "unit": "mm"},
      {"measurement": "MIC", "setting": "MSSA 476 [7]; [11]", "result": 120, "unit": "µg/mL"},
      {"measurement": "MIC", "setting": "MRSA 252 [8]; [12]", "result": 105, "unit": "µg/mL"}
    ]}
  ]
}
